Experimental data from ChEMBL document CHEMBL5579889, “Structure-Based Design and Development of Phosphine Oxides as a Novel Chemotype for Antibiotics that Dysregulate Bacterial ClpP Proteases” (J Med Chem, 2024).
Values after ≈ are worked out from the molar mass of the structure shown. Active and inactive are the calls of the source. The calls are words filed in the database; no cut-off is given here. Bridge positions count the residues as written; N and C are the ends. Square brackets hold non-standard residues; d marks the D form. Peptide text beside a SMILES is read from it. * marks the point of attachment. Phe(3,5-F2) = N[C@@H](Cc1cc(F)cc(F)c1)C(=O)O; Pro(4R-Me) = C[C@H]1CN[C@H](C(=O)O)C1; aThr = C[C@H](O)[C@H](N)C(=O)O; Pip = O=C(O)[C@@H]1CCCCN1; X1 = CCC/C=C/C=C/C(=O)*

Assays:
[1] = molecular target: T1, ATP-dependent Clp protease proteolytic subunit (Neisseria gonorrhoeae, UniProt Q5F914); test: Activation of N-terminal His-tagged recombinant Neisseria gonorrhoeae ClpP expressed in Escherichia coli SG1146(DE3) assessed as degradation of casein-FITC preincubated for 10 mins followed by casein addition measured for over 100 mins by fluorescence based assay
T1 sequence (Q5F914 whole entry): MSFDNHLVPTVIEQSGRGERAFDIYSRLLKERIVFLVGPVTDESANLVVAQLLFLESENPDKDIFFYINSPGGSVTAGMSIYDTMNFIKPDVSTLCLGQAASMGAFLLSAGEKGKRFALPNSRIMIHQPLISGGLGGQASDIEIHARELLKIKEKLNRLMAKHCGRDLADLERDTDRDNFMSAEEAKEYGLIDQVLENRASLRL

[2] = molecular target: T2, ATP-dependent Clp protease proteolytic subunit (Staphylococcus aureus (strain NCTC 8325)) (UniProt Q2G036); test: Activation of N-terminal His-tagged recombinant Staphylococcus aureus ClpP expressed in Escherichia coli SG1146(DE3) assessed as degradation of casein-FITC at 100 uM preincubated for 10 mins followed by casein addition measured for over 100 mins by fluorescence based assay; conditions: time > 110.0 min
T2 sequence (whole entry): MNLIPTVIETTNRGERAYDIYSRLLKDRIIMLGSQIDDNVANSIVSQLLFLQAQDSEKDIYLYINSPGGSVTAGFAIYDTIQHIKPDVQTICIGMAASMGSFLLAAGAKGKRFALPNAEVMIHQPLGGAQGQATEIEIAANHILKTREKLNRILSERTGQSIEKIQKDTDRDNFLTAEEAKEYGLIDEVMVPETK

[3] = molecular target: T3, ATP-dependent Clp protease proteolytic subunit (Escherichia coli (strain K12), UniProt P0A6G7); test: Activation of N-terminal His-tagged recombinant Escherichia coli ClpP expressed in Escherichia coli SG1146(DE3) assessed as degradation of casein-FITC preincubated for 10 mins followed by casein addition measured for over 100 mins by fluorescence based assay
T3 sequence (P0A6G7 whole entry): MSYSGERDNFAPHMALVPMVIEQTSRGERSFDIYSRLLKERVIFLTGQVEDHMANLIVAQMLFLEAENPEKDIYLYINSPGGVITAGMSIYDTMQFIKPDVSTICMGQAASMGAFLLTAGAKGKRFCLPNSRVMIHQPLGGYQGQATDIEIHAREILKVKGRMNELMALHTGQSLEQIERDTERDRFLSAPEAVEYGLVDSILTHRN

Streptococcus pneumoniae = test: Activation of recombinant Streptococcus pneumoniae ClpP extracted from Escherichia coli SG1146(DE3) assessed as degradation of casein-FITC at 100 uM preincubated for 10 mins followed by casein addition measured for over 100 mins by fluorescence based assay; conditions: time > 110.0 min
[4] = molecular target: ATP-dependent Clp protease proteolytic subunit, mitochondrial (Homo sapiens) (UniProt Q16740); test: Activation of N-terminal His-tagged recombinant human ClpP expressed in Escherichia coli SG1146(DE3) assessed as degradation of casein-FITC at 100 uM preincubated for 10 mins followed by casein addition measured for over 100 mins by fluorescence based assay; conditions: time > 110.0 min
Chain of ATP-dependent Clp protease proteolytic subunit, mitochondrial (Homo sapiens) (Q16740 whole entry): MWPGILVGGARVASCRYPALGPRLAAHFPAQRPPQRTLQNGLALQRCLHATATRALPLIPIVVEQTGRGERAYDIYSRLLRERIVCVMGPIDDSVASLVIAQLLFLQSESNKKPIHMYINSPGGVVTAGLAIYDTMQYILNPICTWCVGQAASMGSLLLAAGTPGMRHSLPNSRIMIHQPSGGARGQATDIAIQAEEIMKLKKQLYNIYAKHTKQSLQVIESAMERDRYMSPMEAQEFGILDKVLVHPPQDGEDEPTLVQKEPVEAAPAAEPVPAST

Neisseria gonorrhoeae [5] = test: Antibacterial activity against Neisseria gonorrhoeae FA19 measured after 16 to 18 hrs by OD based assay; type: functional; conditions: time 16-18 hrs
Neisseria meningitidis [6] = test: Antibacterial activity against Neisseria meningitidis EG329 measured after 16 to 18 hrs by OD based assay; type: functional; conditions: time 16-18 hrs
Neisseria gonorrhoeae [7] = test: Antibacterial activity against Neisseria gonorrhoeae WHO G measured after 16 to 18 hrs by OD based assay; type: functional; conditions: time 16-18 hrs
Neisseria gonorrhoeae [8] = test: Antibacterial activity against Neisseria gonorrhoeae WHO P measured after 16 to 18 hrs by OD based assay; type: functional; conditions: time 16-18 hrs
Neisseria gonorrhoeae [9] = test: Antibacterial activity against Neisseria gonorrhoeae WHO N measured after 16 to 18 hrs by OD based assay; type: functional; conditions: time 16-18 hrs
Neisseria gonorrhoeae [10] = test: Antibacterial activity against Neisseria gonorrhoeae WHO K measured after 16 to 18 hrs by OD based assay; type: functional; conditions: time 16-18 hrs
Neisseria meningitidis [11] = test: Antibacterial activity against Neisseria meningitidis SWZ107 measured after 16 to 18 hrs by OD based assay; type: functional; conditions: time 16-18 hrs
Neisseria meningitidis [12] = test: Antibacterial activity against Neisseria meningitidis NG144/82 measured after 16 to 18 hrs by OD based assay; type: functional; conditions: time 16-18 hrs
Neisseria gonorrhoeae [13] = test: Antibacterial activity against Neisseria gonorrhoeae WHO V measured after 16 to 18 hrs by OD based assay; type: functional; conditions: time 16-18 hrs
Neisseria meningitidis [14] = test: Antibacterial activity against Neisseria meningitidis BZ169 measured after 16 to 18 hrs by OD based assay; type: functional; conditions: time 16-18 hrs
Neisseria gonorrhoeae [15] = test: Antibacterial activity against Neisseria gonorrhoeae WHO Y measured after 16 to 18 hrs by OD based assay; type: functional; conditions: time 16-18 hrs
Neisseria gonorrhoeae [16] = test: Antibacterial activity against Neisseria gonorrhoeae WHO X measured after 16 to 18 hrs by OD based assay; type: functional; conditions: time 16-18 hrs
Neisseria meningitidis [17] = test: Antibacterial activity against Neisseria meningitidis NGF26 measured after 16 to 18 hrs by OD based assay; type: functional; conditions: time 16-18 hrs
Neisseria gonorrhoeae [18] = test: Antibacterial activity against Neisseria gonorrhoeae WHO Z measured after 16 to 18 hrs by OD based assay; type: functional; conditions: time 16-18 hrs
Neisseria gonorrhoeae [19] = test: Antibacterial activity against Neisseria gonorrhoeae MS11 measured after 16 to 18 hrs by OD based assay; type: functional; conditions: time 16-18 hrs
Neisseria gonorrhoeae [20] = test: Antibacterial activity against Neisseria gonorrhoeae WHO L measured after 16 to 18 hrs by OD based assay; type: functional; conditions: time 16-18 hrs
Neisseria meningitidis [21] = test: Antibacterial activity against Neisseria meningitidis BZ133 measured after 16 to 18 hrs by OD based assay; type: functional; conditions: time 16-18 hrs
Neisseria meningitidis [22] = test: Antibacterial activity against wild-type Neisseria meningitidis H44/76 measured after 16 to 18 hrs by OD based assay; type: functional; conditions: time 16-18 hrs
Neisseria meningitidis [23] = test: Antibacterial activity against Neisseria meningitidis AK50 measured after 16 to 18 hrs by OD based assay; type: functional; conditions: time 16-18 hrs
Neisseria meningitidis [24] = test: Antibacterial activity against Neisseria meningitidis 88/03415 measured after 16 to 18 hrs by OD based assay; type: functional; conditions: time 16-18 hrs
Neisseria meningitidis [25] = test: Antibacterial activity against Neisseria meningitidis NGPB24 measured after 16 to 18 hrs by OD based assay; type: functional; conditions: time 16-18 hrs
Neisseria meningitidis [26] = test: Antibacterial activity against Neisseria meningitidis H44/76 harboring deltaclpP measured after 16 to 18 hrs by OD based assay; type: functional; conditions: time 16-18 hrs
Neisseria gonorrhoeae [27] = test: Antibacterial activity against Neisseria gonorrhoeae WHO M measured after 16 to 18 hrs by OD based assay; type: functional; conditions: time 16-18 hrs
[28] = Cytotoxicity against wild-type HEK293-T-REx cells assessed as cell viability upto 100 uM incubated for 3 days by AlamarBlue assay; type: toxicity, cell-based; conditions: human, 72 h, time 3 day
[29] = molecular target: T1, ATP-dependent Clp protease proteolytic subunit; test: Binding affinity to His-tagged recombinant Neisseria gonorrhoeae ClpP extracted from Escherichia coli SG1146(DE3) using casein as substrate assessed as apparent dissociation constant incubated upto 120 mins by SDS-PAGE analysis; conditions: read-out: Kd(app)
[30] = molecular target: T3, ATP-dependent Clp protease proteolytic subunit; test: Binding affinity to His-tagged recombinant Escherichia coli ClpP extracted from Escherichia coli SG1146(DE3) using casein as substrate assessed as apparent dissociation constant incubated upto 120 mins by SDS-PAGE analysis; conditions: read-out: Kd(app)
[31] = molecular target: ATP-dependent Clp protease proteolytic subunit (Escherichia coli (strain K12)) (UniProt P0A6G7); test: Activation of N-terminal His-tagged recombinant Escherichia coli ClpP expressed in Escherichia coli SG1146(DE3) assessed as degradation of casein-FITC at 100 uM preincubated for 10 mins followed by casein addition measured for over 100 mins by fluorescence based assay; conditions: filed as activator, time > 110.0 min
Chain of ATP-dependent Clp protease proteolytic subunit (Escherichia coli (strain K12)) (P0A6G7 whole entry): as the sequence (P0A6G7 whole entry) above

[32] = molecular target: ATP-dependent Clp protease proteolytic subunit (Neisseria gonorrhoeae) (UniProt Q5F914); test: Activation of N-terminal His-tagged recombinant Neisseria gonorrhoeae ClpP expressed in Escherichia coli SG1146(DE3) assessed as degradation of casein-FITC at 100 uM preincubated for 10 mins followed by casein addition measured for over 100 mins by fluorescence based assay; conditions: time > 110.0 min
Chain of ATP-dependent Clp protease proteolytic subunit (Neisseria gonorrhoeae) (Q5F914 whole entry): as the sequence (Q5F914 whole entry) above

SMILES | EC50 [1] | Activity [2] | EC50 [3] | Activity (Streptococcus pneumoniae) | Activity [4] | MIC (Neisseria gonorrhoeae [5]) | MIC (Neisseria meningitidis [6]) | MIC (Neisseria gonorrhoeae [7]) | MIC (Neisseria gonorrhoeae [8]) | MIC (Neisseria gonorrhoeae [9]) | MIC (Neisseria gonorrhoeae [10]) | MIC (Neisseria meningitidis [11]) | MIC (Neisseria meningitidis [12]) | MIC (Neisseria gonorrhoeae [13]) | MIC (Neisseria meningitidis [14]) | MIC (Neisseria gonorrhoeae [15]) | MIC (Neisseria gonorrhoeae [16]) | MIC (Neisseria meningitidis [17]) | MIC (Neisseria gonorrhoeae [18]) | MIC (Neisseria gonorrhoeae [19]) | other results
CC(C)(C(=O)NCCSc1ccccc1Br)P(=O)(c1ccc(C(F)(F)F)cc1)c1ccc(C(F)(F)F)cc1 | 3.39 µM | inactive | 7.23 µM | inactive | inactive | – | – | – | – | – | – | – | – | – | – | – | – | – | – | – | –
CCC/C=C/C=C/C(=O)N[C@@H](Cc1cc(F)cc(F)c1)C(=O)N[C@@H]1C(=O)N2CCC[C@H]2C(=O)N2CCCC[C@H]2C(=O)N[C@@H](C)C(=O)N2C[C@H](C)C[C@H]2C(=O)O[C@H]1C (X1-[Phe(3,5-F2)][aThr]P[Pip]A[Pro(4R-Me)]; ester 2-C) | 0.23 µM | – | 4.69 µM | – | – | 1.6 µM (≈ 1.28 µg/mL) | < 0.3 µM | 0.3 µM (≈ 0.239 µg/mL) | 4.7 µM (≈ 3.75 µg/mL) | 0.3 µM (≈ 0.239 µg/mL) | 0.3 µM (≈ 0.239 µg/mL) | < 0.3 µM | 0.3 µM (≈ 0.239 µg/mL) | 3.1 µM (≈ 2.47 µg/mL) | 0.3 µM (≈ 0.239 µg/mL) | 0.3 µM (≈ 0.239 µg/mL) | 0.3 µM (≈ 0.239 µg/mL) | 2.4 µM (≈ 1.91 µg/mL) | 0.3 µM (≈ 0.239 µg/mL) | 0.3 µM (≈ 0.239 µg/mL) | MIC (Neisseria gonorrhoeae [20]): 0.3 µM (≈ 0.239 µg/mL); MIC (Neisseria meningitidis [21]): 0.3 µM (≈ 0.239 µg/mL); MIC (Neisseria meningitidis [22]): < 0.3 µM; MIC (Neisseria meningitidis [23]): 1.6 µM (≈ 1.28 µg/mL); MIC (Neisseria meningitidis [24]): 0.3 µM (≈ 0.239 µg/mL); MIC (Neisseria meningitidis [25]): 0.3 µM (≈ 0.239 µg/mL); MIC (Neisseria meningitidis [26]): > 25 µM; MIC (Neisseria gonorrhoeae [27]): 0.3 µM (≈ 0.239 µg/mL)
CC(C)(C(=O)NCCSc1ccccc1C(F)(F)F)P(=O)(c1ccc(C(F)(F)F)cc1)c1ccc(C(F)(F)F)cc1 | 3.28 µM | – | 4.51 µM | – | – | – | – | – | – | – | – | – | – | – | – | – | – | – | – | – | –
CC(C)(C(=O)NCCSc1ccccc1C(F)(F)F)P(=O)(c1ccc(C(F)(F)F)cn1)c1ccc(C(F)(F)F)cn1 | 0.16 µM | inactive | 0.2 µM | inactive | inactive | 1.6 µM (≈ 1.01 µg/mL) | 13.8 µM (≈ 8.69 µg/mL) | 1.6 µM (≈ 1.01 µg/mL) | 1.6 µM (≈ 1.01 µg/mL) | 1.6 µM (≈ 1.01 µg/mL) | 1.6 µM (≈ 1.01 µg/mL) | 123 µM (≈ 77.4 µg/mL) | 18.8 µM (≈ 11.8 µg/mL) | 3.1 µM (≈ 1.95 µg/mL) | 18.8 µM (≈ 11.8 µg/mL) | 3.1 µM (≈ 1.95 µg/mL) | 1.6 µM (≈ 1.01 µg/mL) | 18.8 µM (≈ 11.8 µg/mL) | 2.4 µM (≈ 1.51 µg/mL) | 1.6 µM (≈ 1.01 µg/mL) | Activity [28]: Non-Toxic; Kd [29]: 0.69 µM; MIC (Neisseria gonorrhoeae [20]): 1.6 µM (≈ 1.01 µg/mL); MIC (Neisseria meningitidis [21]): 25 µM (≈ 15.7 µg/mL); MIC (Neisseria meningitidis [22]): 0.3 µM (≈ 0.189 µg/mL); MIC (Neisseria meningitidis [23]): 50 µM (≈ 31.5 µg/mL); MIC (Neisseria meningitidis [24]): 18.8 µM (≈ 11.8 µg/mL); MIC (Neisseria meningitidis [25]): 25 µM (≈ 15.7 µg/mL); MIC (Neisseria meningitidis [26]): 3.1 µM (≈ 1.95 µg/mL); MIC (Neisseria gonorrhoeae [27]): 1.6 µM (≈ 1.01 µg/mL); Kd [30]: 0.27 µM
O=C(CP(=O)(c1ccc(C(F)(F)F)cn1)c1ccc(C(F)(F)F)cn1)NCCSc1ccccc1C(F)(F)F | 4.9 µM | inactive | 1.79 µM | inactive | inactive | – | – | – | – | – | – | – | – | – | – | – | – | – | – | – | –
CC(C(=O)NCCSc1ccccc1C(F)(F)F)P(=O)(c1ccc(C(F)(F)F)cc1)c1ccc(C(F)(F)F)cc1 (stereo unspecified) | – | – | 4.45 µM | – | – | – | – | – | – | – | – | – | – | – | – | – | – | – | – | – | Activity [31]: Active; Activity [32]: inactive
